Entries after “also recorded” stand apart in the source; their conditions may differ.

Data on 3 compounds can be found in patent publication US5789602A, “Physiologically active substances PF1092A, PF1092B and PF1092C, process for the production thereof, and contraceptives and anticancer drugs containing the same as active ingredients” (Meiji Seika Kaisha, Ltd., priority 1995, dated 1998).

Data set [1] concerns the target T1, progesterone receptor (Sus scrofa, UniProt D0EWS6).
T1 construct: from tissue; host or cells: hog uterus, cytosol (100,000×g supernatant)
T1 sequence (D0EWS6 1-934): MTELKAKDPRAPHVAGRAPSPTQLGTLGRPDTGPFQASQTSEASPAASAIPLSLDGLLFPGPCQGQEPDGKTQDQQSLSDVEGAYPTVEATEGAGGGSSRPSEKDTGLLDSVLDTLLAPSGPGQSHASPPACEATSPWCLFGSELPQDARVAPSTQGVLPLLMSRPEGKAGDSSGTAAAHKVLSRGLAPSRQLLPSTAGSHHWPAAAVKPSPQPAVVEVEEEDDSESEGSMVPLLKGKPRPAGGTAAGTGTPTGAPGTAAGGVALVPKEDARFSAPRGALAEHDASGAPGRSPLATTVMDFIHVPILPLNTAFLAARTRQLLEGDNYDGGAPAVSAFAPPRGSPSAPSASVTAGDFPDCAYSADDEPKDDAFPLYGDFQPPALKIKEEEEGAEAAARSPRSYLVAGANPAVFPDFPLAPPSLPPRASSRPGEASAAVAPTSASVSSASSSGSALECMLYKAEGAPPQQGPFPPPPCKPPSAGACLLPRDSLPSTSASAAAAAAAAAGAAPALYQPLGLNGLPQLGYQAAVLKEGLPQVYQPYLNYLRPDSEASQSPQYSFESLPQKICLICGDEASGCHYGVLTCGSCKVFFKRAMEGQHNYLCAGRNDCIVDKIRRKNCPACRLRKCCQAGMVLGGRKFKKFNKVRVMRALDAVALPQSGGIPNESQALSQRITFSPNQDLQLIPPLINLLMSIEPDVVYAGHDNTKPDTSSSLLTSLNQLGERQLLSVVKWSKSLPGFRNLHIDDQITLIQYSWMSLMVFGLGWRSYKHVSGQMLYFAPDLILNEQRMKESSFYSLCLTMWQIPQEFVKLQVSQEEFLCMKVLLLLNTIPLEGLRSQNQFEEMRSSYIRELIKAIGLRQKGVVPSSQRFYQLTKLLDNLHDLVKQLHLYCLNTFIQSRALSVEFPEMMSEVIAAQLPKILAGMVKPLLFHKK
The experiment in a line: progesterone receptor binding activity (3H-progesterone, hog uterus cytosol). Further details: species or system hogs. The conditions noted are these: 1 h, 30 μM test substance, 4° C., 60 minutes, read-out: inhibition of the binding of 3H-progesterone to the progesterone receptor (inhibition ratio). Here is the method:
The progesterone receptor binding activity of substance PF1092A, substance PF1092B and substance PF1092C of the present invention was measured in the following manner in accordance with the method of H. Kondo et al. (J. Antibiotics, vol. 43, pp. 1533-1542, 1990). That is, uteri taken from hogs in 5 mM phosphate buffer were disrupted using Polytron homogenizer, and the resulting solution was subjected to centrifugation (100,000×g, 30 minutes) to separate the supernatant fluid which was used as the cytosol containing progesterone receptor.
In the assay of progesterone receptor binding activity, 40 μl of a solution of ^3 H-progesterone as a ligand of the receptor (3.84 TBq/mmol, 18.5 kBq/ml), 50 μl of the just obtained cytosol (2-3 mg protein/ml), 30 μM of substance PF1092A, substance PF1092B and substance PF1092C and 30 μM of medroxyprogesterone acetate (MPA) were put into a test tube and incubated at 4° C. for 60 minutes to effect the reaction and then mixed with 100 μl of 0.5% activated carbon solution. After 10 minutes of standing, this was subjected to centrifugation (2,000×g, 10 minutes), and radioactivity of the thus obtained supernatant fluid was measured using a liquid scintillation counter. Inhibition ratio was calculated based on the following formula in which radioactivity with no addition of the test drug was defined as the amount of total binding to the cytosol and radioactivity with the addition of MPA was defined as the amount of non-specific binding. [formula]

Data set [2] is described as follows: Solubility (physico-chemical properties). The following applies: qualitative, in organic solvents and in water. Type of data set: physicochemical.

Take `CC(=O)OC1C=C2C=C3OC(=O)C(C)=C3CC2(C)C(C)C1O` (stereo not drawn) [PF1092B]: in data set [1], the inhibition at 30 µM is not below 90%. In addition, in data set [2], the Solubility entry is “soluble in chloroform, acetone, ethyl acetate, methanol and dimethyl sulfoxide, and insoluble in water and hexane”.

Consider `CC1=C2CC3(C)C(=CC(O)C(O)C3C)C=C2OC1=O` (stereo not drawn) [PF1092C], for which the inhibition at 30 µM in data set [1] is approximately 70%. The Solubility result in data set [2] was “soluble in chloroform, acetone, ethyl acetate, methanol and dimethyl sulf oxide, and insoluble in water and hexane; also recorded: soluble in chloroform, acetone, ethyl acetate, methanol and dimethyl sulfoxide, and insoluble in water and hexane”.

For `CC(=O)OC1C(O)C=C2C=C3OC(=O)C(C)=C3CC2(C)C1C` (stereo not drawn) [PF1092A], the inhibition at 30 µM in data set [1] was not below 90%. For the same compound, the Solubility entry in data set [2] was “soluble in chloroform, acetone, ethyl acetate, methanol and dimethyl sulfoxide, and insoluble in water and hexane”.
